Test results from ChEMBL document CHEMBL4251634, “Synthesis and antimicrobial activity of pyrimidinyl 1,3,4-oxadiazoles, 1,3,4-thiadiazoles and 1,2,4-triazoles” (2018).

Assays:
Format in all cases: functional
Pseudomonas aeruginosa [1] = test: Antibacterial activity against Pseudomonas aeruginosa after 24 hrs by turbidity-based broth dilution assay
Aspergillus niger [2] = test: Antifungal activity against Aspergillus niger assessed as diameter of inhibition zone at 25 ug/well after 48 hrs by agar well diffusion method; conditions: read-out: DIZ
Aspergillus niger [3] = test: Antifungal activity against Aspergillus niger assessed as diameter of inhibition zone at 100 ug/well after 48 hrs by agar well diffusion method; conditions: read-out: DIZ
Klebsiella pneumoniae [4] = test: Antibacterial activity against Klebsiella pneumoniae assessed as diameter of inhibition zone at 50 ug/well after 24 hrs by agar well diffusion method; conditions: read-out: DIZ
Bacillus subtilis [5] = test: Bactericidal activity against Bacillus subtilis incubated for 24 hrs followed by regrowth on sterile nutrient broth for 24 hrs; set-up: unit not given here
Staphylococcus aureus [6] = test: Antibacterial activity against Staphylococcus aureus assessed as diameter of inhibition zone at 25 ug/well after 24 hrs by agar well diffusion method; conditions: read-out: DIZ
Penicillium chrysogenum [7] = test: Antifungal activity against Penicillium chrysogenum after 48 hrs by turbidity-based broth dilution assay
Penicillium chrysogenum [8] = test: Antifungal activity against Penicillium chrysogenum assessed as diameter of inhibition zone at 12.5 ug/well after 48 hrs by agar well diffusion method; conditions: read-out: DIZ
Klebsiella pneumoniae [9] = test: Antibacterial activity against Klebsiella pneumoniae assessed as diameter of inhibition zone at 100 ug/well after 24 hrs by agar well diffusion method; conditions: read-out: DIZ
Klebsiella pneumoniae [10] = test: Bactericidal activity against Klebsiella pneumoniae incubated for 24 hrs followed by regrowth on sterile nutrient broth for 24 hrs
Staphylococcus aureus [11] = test: Antibacterial activity against Staphylococcus aureus assessed as diameter of inhibition zone at 12.5 ug/well after 24 hrs by agar well diffusion method; conditions: read-out: DIZ
Bacillus subtilis [12] = test: Antibacterial activity against Bacillus subtilis assessed as diameter of inhibition zone at 12.5 ug/well after 24 hrs by agar well diffusion method; conditions: read-out: DIZ
Pseudomonas aeruginosa [13] = test: Antibacterial activity against Pseudomonas aeruginosa assessed as diameter of inhibition zone at 50 ug/well after 24 hrs by agar well diffusion method; conditions: read-out: DIZ
Penicillium chrysogenum [14] = test: Antifungal activity against Penicillium chrysogenum assessed as diameter of inhibition zone at 50 ug/well after 48 hrs by agar well diffusion method; conditions: read-out: DIZ
Aspergillus niger [15] = test: Fungicidal activity against Aspergillus niger incubated for 48 hrs followed by regrowth on PDA plates for 48 hrs
Penicillium chrysogenum [16] = test: Fungicidal activity against Penicillium chrysogenum incubated for 48 hrs followed by regrowth on PDA plates for 48 hrs
Pseudomonas aeruginosa [17] = test: Bactericidal activity against Pseudomonas aeruginosa incubated for 24 hrs followed by regrowth on sterile nutrient broth for 24 hrs
Penicillium chrysogenum [18] = test: Antifungal activity against Penicillium chrysogenum assessed as diameter of inhibition zone at 25 ug/well after 48 hrs by agar well diffusion method; conditions: read-out: DIZ
Bacillus subtilis [19] = test: Antibacterial activity against Bacillus subtilis assessed as diameter of inhibition zone at 25 ug/well after 24 hrs by agar well diffusion method; conditions: read-out: DIZ
Klebsiella pneumoniae [20] = test: Antibacterial activity against Klebsiella pneumoniae after 24 hrs by turbidity-based broth dilution assay
Bacillus subtilis [21] = test: Antibacterial activity against Bacillus subtilis assessed as diameter of inhibition zone at 100 ug/well after 24 hrs by agar well diffusion method; conditions: read-out: DIZ
Klebsiella pneumoniae [22] = test: Antibacterial activity against Klebsiella pneumoniae assessed as diameter of inhibition zone at 25 ug/well after 24 hrs by agar well diffusion method; conditions: read-out: DIZ
Bacillus subtilis [23] = test: Antibacterial activity against Bacillus subtilis assessed as diameter of inhibition zone at 50 ug/well after 24 hrs by agar well diffusion method; conditions: read-out: DIZ
Pseudomonas aeruginosa [24] = test: Ratio of MBC to MIC for Pseudomonas aeruginosa
Pseudomonas aeruginosa [25] = test: Antibacterial activity against Pseudomonas aeruginosa assessed as diameter of inhibition zone at 25 ug/well after 24 hrs by agar well diffusion method; conditions: read-out: DIZ
Klebsiella pneumoniae [26] = test: Antibacterial activity against Klebsiella pneumoniae assessed as diameter of inhibition zone at 12.5 ug/well after 24 hrs by agar well diffusion method; conditions: read-out: DIZ
Aspergillus niger [27] = test: Antifungal activity against Aspergillus niger after 48 hrs by turbidity-based broth dilution assay
Staphylococcus aureus [28] = test: Bactericidal activity against Staphylococcus aureus incubated for 24 hrs followed by regrowth on sterile nutrient broth for 24 hrs
Aspergillus niger [29] = test: Antifungal activity against Aspergillus niger assessed as diameter of inhibition zone at 50 ug/well after 48 hrs by agar well diffusion method; conditions: read-out: DIZ
Penicillium chrysogenum [30] = test: Antifungal activity against Penicillium chrysogenum assessed as diameter of inhibition zone at 100 ug/well after 48 hrs by agar well diffusion method; conditions: read-out: DIZ
Staphylococcus aureus [31] = test: Antibacterial activity against Staphylococcus aureus assessed as diameter of inhibition zone at 100 ug/well after 24 hrs by agar well diffusion method; conditions: read-out: DIZ
Pseudomonas aeruginosa [32] = test: Antibacterial activity against Pseudomonas aeruginosa assessed as diameter of inhibition zone at 12.5 ug/well after 24 hrs by agar well diffusion method; conditions: read-out: DIZ
Aspergillus niger [33] = test: Antifungal activity against Aspergillus niger assessed as diameter of inhibition zone at 12.5 ug/well after 48 hrs by agar well diffusion method; conditions: read-out: DIZ
Staphylococcus aureus [34] = test: Antibacterial activity against Staphylococcus aureus after 24 hrs by turbidity-based broth dilution assay
Staphylococcus aureus [35] = test: Antibacterial activity against Staphylococcus aureus assessed as diameter of inhibition zone at 50 ug/well after 24 hrs by agar well diffusion method; conditions: read-out: DIZ
Pseudomonas aeruginosa [36] = test: Antibacterial activity against Pseudomonas aeruginosa assessed as diameter of inhibition zone at 100 ug/well after 24 hrs by agar well diffusion method; conditions: read-out: DIZ
Aspergillus niger [37] = test: Ratio of MFC to MIC for Aspergillus niger

Row | Compound | MIC (Pseudomonas aeruginosa [1]) [µg] | zone of inhibition at 25 µg/disc (Aspergillus niger [2]) [mm] | zone of inhibition at 100 µg/disc (Aspergillus niger [3]) [mm] | zone of inhibition at 50 µg/disc (Klebsiella pneumoniae [4]) [mm] | MBC (Bacillus subtilis [5]) | zone of inhibition at 25 µg/disc (Staphylococcus aureus [6]) [mm] | MIC (Penicillium chrysogenum [7]) [µg] | zone of inhibition at 12.5 µg/disc (Penicillium chrysogenum [8]) [mm] | zone of inhibition at 100 µg/disc (Klebsiella pneumoniae [9]) [mm] | MBC (Klebsiella pneumoniae [10]) [µg] | zone of inhibition at 12.5 µg/disc (Staphylococcus aureus [11]) [mm] | zone of inhibition at 12.5 µg/disc (Bacillus subtilis [12]) [mm] | zone of inhibition at 50 µg/disc (Pseudomonas aeruginosa [13]) [mm] | zone of inhibition at 50 µg/disc (Penicillium chrysogenum [14]) [mm] | MFC (Aspergillus niger [15]) [µg] | MFC (Penicillium chrysogenum [16]) [µg] | MBC (Pseudomonas aeruginosa [17]) [µg] | zone of inhibition at 25 µg/disc (Penicillium chrysogenum [18]) [mm] | zone of inhibition at 25 µg/disc (Bacillus subtilis [19]) [mm] | MIC (Klebsiella pneumoniae [20]) [µg] | further results
1 | Cc1cc(SCc2nnc(-c3ccc(Cl)cc3)s2)nc(SCc2nnc(-c3ccc(Cl)cc3)s2)n1 | 6.25 | 26 | 31 | 32 | 100 | 17 | 50 | 15 | 35 | 50 | 15 | 21 | 32 | 19 | 50 | 200 | 12.5 | 17 | 23 | 12.5 | zone of inhibition at 100 µg/disc (Bacillus subtilis [21]): 29 mm; zone of inhibition at 25 µg/disc (Klebsiella pneumoniae [22]): 30 mm; zone of inhibition at 50 µg/disc (Bacillus subtilis [23]): 26 mm; Ratio (Pseudomonas aeruginosa [24]): 2; zone of inhibition at 25 µg/disc (Pseudomonas aeruginosa [25]): 29 mm; zone of inhibition at 12.5 µg/disc (Klebsiella pneumoniae [26]): 28 mm; MIC (Aspergillus niger [27]): 12.5 µg; MBC (Staphylococcus aureus [28]): 200 µg; zone of inhibition at 50 µg/disc (Aspergillus niger [29]): 28 mm; zone of inhibition at 100 µg/disc (Penicillium chrysogenum [30]): 22 mm; zone of inhibition at 100 µg/disc (Staphylococcus aureus [31]): 21 mm; zone of inhibition at 12.5 µg/disc (Pseudomonas aeruginosa [32]): 26 mm; zone of inhibition at 12.5 µg/disc (Aspergillus niger [33]): 24 mm; MIC (Staphylococcus aureus [34]): 50 µg; zone of inhibition at 50 µg/disc (Staphylococcus aureus [35]): 19 mm; zone of inhibition at 100 µg/disc (Pseudomonas aeruginosa [36]): 34 mm
2 | Cc1cc(SCc2nnc(-c3ccc(Cl)cc3)n2N)nc(SCc2nnc(-c3ccc(Cl)cc3)n2N)n1 | 25 | 33 | 38 | 26 | 200 | 11 | 25 | 21 | 29 | 100 | 10 | 16 | 24 | 25 | 12.5 | 100 | 100 | 23 | 18 | 25 | zone of inhibition at 100 µg/disc (Bacillus subtilis [21]): 24 mm; zone of inhibition at 25 µg/disc (Klebsiella pneumoniae [22]): 24 mm; zone of inhibition at 50 µg/disc (Bacillus subtilis [23]): 20 mm; zone of inhibition at 25 µg/disc (Pseudomonas aeruginosa [25]): 21 mm; zone of inhibition at 12.5 µg/disc (Klebsiella pneumoniae [26]): 22 mm; MIC (Aspergillus niger [27]): 6.25 µg; MBC (Staphylococcus aureus [28]): >200 µg; zone of inhibition at 50 µg/disc (Aspergillus niger [29]): 35 mm; zone of inhibition at 100 µg/disc (Penicillium chrysogenum [30]): 29 mm; zone of inhibition at 100 µg/disc (Staphylococcus aureus [31]): 15 mm; zone of inhibition at 12.5 µg/disc (Pseudomonas aeruginosa [32]): 18 mm; zone of inhibition at 12.5 µg/disc (Aspergillus niger [33]): 32 mm; MIC (Staphylococcus aureus [34]): 100 µg; Ratio (Aspergillus niger [37]): 2; zone of inhibition at 50 µg/disc (Staphylococcus aureus [35]): 13 mm; zone of inhibition at 100 µg/disc (Pseudomonas aeruginosa [36]): 27 mm
3 | Cc1cc(SCc2nnc(-c3ccc([N+](=O)[O-])cc3)n2N)nc(SCc2nnc(-c3ccc([N+](=O)[O-])cc3)n2N)n1 | 12.5 | 35 | 40 | 29 | 200 | 15 | 25 | 23 | 32 | 100 | 13 | 18 | 28 | 27 | 12.5 | 100 | 50 | 25 | 20 | 25 | zone of inhibition at 100 µg/disc (Bacillus subtilis [21]): 26 mm; zone of inhibition at 25 µg/disc (Klebsiella pneumoniae [22]): 27 mm; zone of inhibition at 50 µg/disc (Bacillus subtilis [23]): 22 mm; zone of inhibition at 25 µg/disc (Pseudomonas aeruginosa [25]): 26 mm; zone of inhibition at 12.5 µg/disc (Klebsiella pneumoniae [26]): 25 mm; MIC (Aspergillus niger [27]): 6.25 µg; MBC (Staphylococcus aureus [28]): >200 µg; zone of inhibition at 50 µg/disc (Aspergillus niger [29]): 37 mm; zone of inhibition at 100 µg/disc (Penicillium chrysogenum [30]): 31 mm; zone of inhibition at 100 µg/disc (Staphylococcus aureus [31]): 19 mm; zone of inhibition at 12.5 µg/disc (Pseudomonas aeruginosa [32]): 23 mm; zone of inhibition at 12.5 µg/disc (Aspergillus niger [33]): 33 mm; MIC (Staphylococcus aureus [34]): 100 µg; Ratio (Aspergillus niger [37]): 2; zone of inhibition at 50 µg/disc (Staphylococcus aureus [35]): 17 mm; zone of inhibition at 100 µg/disc (Pseudomonas aeruginosa [36]): 31 mm
